Results taken from PubChem BioAssay (NCI).
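Cultured in 96-well plates, cells were exposed to test compound for 48 hours across five concentrations. GI50 = concentration required for 50% inhibition of growth. At the TGI there is no net growth.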

Tests used:
Test in all cases: inhibition of tumour cell growth, NCI panel, 48 h
[1] = system: DU-145 prostate
[2] = system: SK-MEL-28 melanoma
[3] = system: OVCAR-5 ovarian
[4] = system: ACHN renal
[5] = system: HCT-15 colon
[6] = system: MDA-MB-231 breast
[7] = system: EKVX NSCLC
[8] = system: UACC-257 melanoma
[9] = system: NCI/ADR-RES ovarian
[10] = system: SF-295 CNS
[11] = system: T-47D breast
[12] = system: UACC-62 melanoma

## CCCCCCCCCCCCCCCCCCOc1ccccc1CC(=O)OCC[N+](C)(C)C
[1]
  GI50: 1.71 µM
  TGI: 3.09 µM
[2]
  GI50: 1.63 µM
  TGI: 3.57 µM
[3]
  GI50: 1.45 µM
  TGI: 2.89 µM
[4]
  GI50: 1.75 µM
  TGI: 3.72 µM
[5]
  GI50: 2.94 µM
  TGI: 11.5 µM
[6]
  GI50: 1.57 µM
  TGI: 3.21 µM
[7]
  GI50: 2.17 µM
  TGI: 5.4 µM
[8]
  GI50: 2.34 µM
  TGI: 6.34 µM
[9]
  GI50: 9.84 µM
  TGI: 35.7 µM
[10]
  GI50: 2.03 µM
  TGI: 4.52 µM
[11]
  GI50: 2.06 µM
  TGI: 4.89 µM
[12]
  GI50: 1.57 µM
  TGI: 3.51 µM
